# Patent US4886806A, “Flavone-3-carboxylic acids compounds and pharmaceutical compositions containing them” (Kali-Chemie Pharma GmbH, priority 1987, dated 1989)
# Tests used:
# [1] = test system: oxygen radical-forming activity of peritoneal exudate cells (PEC) of mice; test: Spontaneous CL and induced CL chemiluminescence test: inhibition of oxygen radical liberation from peritoneal exudate cells (30 min preincubation); type: cell-based; design: concentration or dose not given beside the values; conditions: for Inhibition in vitro of the oxygen radical liberation, Chemiluminescence Test % inhibition, Ind. CL: induced CL, after ZyC3b activation; for Inhibition in vitro of the oxygen radical liberation, Chemiluminescence Test % inhibition, Spnt. CL: spontaneous CL, before ZyC3b
# Protocol: 1. To determine the inhibiting effect on the oxygen radical-forming activity of inflamed cells, the in vitro inhibition of the release of oxygen radicals from activated peritoneal exudate cells (=PEC) of mice was determined in the chemiluminescence (CL) test according to the method of Mueller-Peddinghaus (Int. J. Immunopharmac. 6, 455-466 (1984)). […] The intensity of the chemiluminescence is a measurement of the oxygen radical content in the suspension and thus the degree of activity of the inflamed cells. In this, three functionally different parameters are detected, the spontaneous CL, the induced CL and the peak CL. The spontaneous CL and the induced CL on the one hand and the peak CL on the other hand differ from each other because in the first two parameters the test substances are in contact with the cells for a 30 minute preincubation period before the inflammation irritant is added, whereas with the peak CL the cells are first stimulated, and the test substance is added at the peak of their activity. The measurement of the spontaneous CL thus detects the influence of the test substance on the relative rest activity of inflamed cells, the induced CL represents the effect of the test substances on the activatability of the cells and the inhibition of the peak CL indicates the effect of the test substances on the maximum activity of the inflamed cells. 1.1 Production of PEC suspension used in the test. In order to induce the PEC formation, female mice of 20-25 g body weight were each injected i.p. with 2 ml of a 3% solution of thioglycollate in sterile isotonic sodium chloride solution. Twenty four hours after the thioglycollate injection the cells, which predominantly consisted of polymorphonuclear leucocytes, were recovered by washing out of the abdominal cavity and washed twice. As cell culture medium there was added a commercially available solution under the designation RPMI 1640 (pH 7.2) (produced by Flow Laboratories, […], Germany), which contains 10% fetal calf serum (FCS, produced by Seromed GmbH, Munich, Germany) 18 μmol/l sodium bicarbonate and 2 μmol/l L-glutamine. The cell pellets of four animals each time were resuspended in cell culture medium, collected together and the suspension was made up to 2×10^6 cells per ml with cell culture medium. The cell suspensions were kept under ice cooling until their use the same day. 1.2 Production of the complement opsonized zymosan (=ZyC3 b) suspension used for activation. 200 mg zymosan (glycoprotein mixture isolated from the cell walls of brewer's yeast, Sacchomyces […], produced by Sigma Chemical Co., Munich, Germany) were suspended in 10 ml phosphate buffer solution according to Dulbecco (produced by Flow Laboratories, […], Germany), well stirred and heated for thirty minutes in a water bath to 100° C. After cooling, it was centrifuged for five minutes at 4° C. and at 600 ×g and the supernatant was discarded. The sediment was resuspended in 50 ml human serum and incubated for thirty minutes at 37° C. in a shaking water bath. Then it was centrifuged for five minutes at 600 ×g and 420 C., the supernatant decanted and the sediment washed with phosphate buffer solution. The working suspension of 8×10^-3 g ZyC3 b/ml was produced from the sediment by dilution with phosphate buffer solution (Mueller-Peddinghaus et al., Zbl. Vet. Med. B. 30, 559-575). 1.3 Chemiluminescence (CL) measurement (Peak-CL). […] At the end of this preincubation phase, 100 μl lucigenin were added, and in the course of the subsequent sixteen minute incubation phase the spontaneous CL parameter was determined with two measuring points. Then 100 μl ZyC3 b+100 μl phosphate buffer were added, and during the course of the subsequent twenty-four minute cell activation the induced CL parameter was measured with three measuring points. All measurements were determined twice. The parameters spontaneous CL and induced CL were determined on the same day with two separate cell pools.
# [2] = test system: carrageenin foot edema in male Wistar rats; test: Inhibition of carrageenin foot edema in rats (Winter et al.); type: in vivo; conditions: Rattus norvegicus, 2 h after irritant; for inhibition in vivo at 100 µmol/kg: 100 μmol/kg p.o.
# Protocol: A similar volume of isotonic sodium chloride solution was injected in the left hind foot. The volume of the each rat's foot was measured plethysmometrically both before and two hours after administration of the irritant, and the swelling of the foot volume after the carrageenin application was compared to the foot which was treated only with sodium chloride solution The inhibition of edema formation by the test substances in the treated animals was compared in percentage terms with the animals of the untreated control group.
# male mice = test: Determination of the minimum toxic dose; type: in vivo; conditions: max. dose 300 mg/kg, 24 h
# Protocol: 3. Determination of the minimum toxic dose.
# Male mice of 20 to 25 g weight were given maximal doses of 300 mg/kg of test substance per os. The animals were carefully watched over a period of three hours for toxicity symptoms. Over a period of twenty-four hours after administration, all symptoms and deaths were recorded. Associated symptoms were also watched and recorded. If death or strongly toxic symptoms were noted, further mice were given increasingly lower doses. The lowest dose which brought about death or strongly toxic symptoms was reported as the minimum toxic dose.
Structure (SMILES),"Inhibition in vitro of the oxygen radical liberation, Chemiluminescence Test % inhibition, Ind. CL [1]","Inhibition in vitro of the oxygen radical liberation, Chemiluminescence Test % inhibition, Spnt. CL [1]","inhibition in vivo at 215 µmol/kg ([2]; ip, 215 μmol/kg i.p.)",Minimal toxic dose mg/kg mouse p.o. (male mice),inhibition in vivo at 100 µmol/kg ([2]; po),"inhibition in vivo at 215 µmol/kg ([2]; po, 215 μmol/kg p.o.)"
CC(=O)Oc1cc(-c2oc3ccccc3c(=O)c2C(=O)N2CCN(c3ccccn3)CC2)cc(OC(C)=O)c1OC(C)=O [Example 39b],99%,99%,62%,–,–,–
"O.O.O=C(O)C(O)C(O)C(=O)O.O=C(c1c(-c2cc(O)c(O)c(O)c2)oc2ccccc2c1=O)N1CCN(Cc2ccccc2)CC1 [Example 14e, 3',4',5'-trihydroxy-3-[(4-benzylpiperazin-1-yl)carbonyl] -flavone tartrate dihydrate]",99%,98%,33%,> 300 mg/kg,–,–
"CCN(CC)CCCOC(=O)c1c(-c2ccccc2)oc2ccccc2c1=O.Cl [Example 3b, 3-[3-(diethylamino)propoxycarbonyl]flavone hydrochloride]",83%,94%,–,300 mg/kg,–,–
"O.O=C(O)C(O)C(O)C(=O)O.O=C(c1c(-c2ccccc2)oc2ccccc2c1=O)N1CCN(Cc2ccccc2)CC1 [Example 2b, 3-[(4-benzyl-piperazin-1-yl)-carbonyl]flavone tartrate monohydrate]",54%,67%,–,> 300 mg/kg,25%,–
COc1cc(OC)c2c(=O)c(C(=O)N3CCN(c4ccccn4)CC3)c(-c3ccccc3)oc2c1 [Example 34],55%,54%,–,–,–,30%
CN1CCN(CCCCNC(=O)c2c(-c3ccccc3)oc3ccccc3c2=O)CC1 [Example 24],14%,55%,–,> 300 mg/kg,–,–
O=C(NCCc1ccccn1)c1c(-c2cc(O)c(O)c(O)c2)oc2ccccc2c1=O [Example 53],83%,73%,50%,–,–,–
"Cl.O=C(c1c(-c2ccccc2)oc2ccccc2c1=O)N1CCN(c2ccccn2)CC1 [Example 1c, 3-{[4-(2-Pyridyl)-piperazin-1-yl]-carbonyl}flavone hydrochloride]",39%,49%,55%,> 300 mg/kg,44%,–
COc1cc(-c2oc3ccccc3c(=O)c2C(=O)NCCCCN2CCN(c3ncccn3)CC2)cc(OC)c1OC [Example 54],83%,91%,40%,> 300 mg/kg,–,–
"O=C(NCCCCN1CCN(c2ccccn2)CC1)c1c(-c2ccccc2)oc2ccccc2c1=O [Example 4e, 3-{4-[4-(2-pyridyl)-piperazin-1-yl]-butylaminocarbonyl}flavone]",82%,95%,54%,300 mg/kg,–,50%
COc1ccc(-c2oc3ccccc3c(=O)c2C(=O)N2CCN(c3ccccn3)CC2)cc1OC [Example 32b],65%,71%,–,> 300 mg/kg,–,–
"COc1cc(-c2oc3ccccc3c(=O)c2C(=O)N2CCN(c3ccccn3)CC2)cc(OC)c1OC [Example 7b, 3',4',5'-trimethoxy-3-{[4-(2-pyridyl)-piperazin-1-yl]-carbonyl}flavone]",50%,61%,–,> 300 mg/kg,–,40%
O=C(c1c(-c2cccc(O)c2)oc2ccccc2c1=O)N1CCN(Cc2ccccc2)CC1 [Example 30],85%,85%,–,> 300 mg/kg,–,–
"COc1cc(-c2oc3ccccc3c(=O)c2C(=O)N2CCN(c3ccccn3)CC2)cc(OC)c1OC [Example 7a, 3',4',5'-trimethoxy-3-{[4-(2-pyridyl)-piperazin-1-yl]-carbonyl}flavone]",65%,75%,–,> 300 mg/kg,–,–
